For one experiment, the target named is Histamine H3 receptor. Kind of experiment: In Vitro Histamine H3 Receptor Binding Analysis ([3H]-N-alpha-methylhistamine displacement, rat cortical membranes). Conditions: [3H]-N-alpha-methylhistamine 0.8-1.2 nM, pH 7.4, 40 min, 25° C, read-out: Histamine H3 Receptor Binding Affinities, H3 Receptor Ki. The protocol:
Histamine H3 receptor affinity was determined in rat cortical membranes using the H3 selective agonist ligand, [^3 H]-N^α -methylhistamine (78.9 Ci/mole, DuPont NEN Research Products, Boston, Mass.) according to the method of West et al., (1990) Mol. Pharmacol. 38: 610-613 with modifications. Briefly, animals were sacrificed by decapitation and the cerebral cortex was rapidly removed. Rat cortices were mechanically homogenized with an Omni 1000 motor driven homogenizer in 10 volumes (wt/vol) of Krebs-Ringers Hepes buffer (pH 7.4) containing the following protease inhibitors: EDTA (10 mM), PMSF (0.1 mM), chymostatin (0.2 mg/50 mL) and leupeptin (0.2 mg/50 mL). The homogenate was centrifuged in a Sorvall at ~40,000×g for 30 min. The pellet was resuspended by mechanical homogenization in 25 mL water and lysed on ice for 30 min. The homogenate was recentrifuged and the membrane lysis was repeated. The membranes were recentrifuged and the final pellet was resuspended in 14 volumes of water to give approximately 200 μg protein/100 μl final concentration. The suspension was stored at -80° prior to use. Protein concentrations were determined by Coomassie Plus Protein Assay (Pierce, Rockford, Ill.).
Nonspecific binding (NSB) was accounted for by the inclusion of thioperamide (10 μM). Samples were incubated for 40 minutes at 25° C. The samples were filtered through glass fiber strips, pre-washed with 0.3% polyethyleneimine, using a Brandell cell harvester. The filters were rapidly washed three times with 4 ml of 25 mm Tris buffer containing 145 mM NaCl (pH 7.4, 4° C.). Filters were transferred to polyethylene mini-vials and counted in 3.5 ml of scintillation fluid (Ecolume, ICN Biomedicals, Inc.). […] Saturation and competition experiments were analyzed with the ReceptorFit saturation and competition curve fitting programs (Lundon Software, Ind., Cleveland, Ohio).

For the next experiment, the system named is arousal EEG pattern. Conditions: intraventricular, rabbits; cited from earlier work.
Experiment [1] deals with spontaneous locomotor activity, grooming and exploratory behavior. Conditions: intraventricular, saline and pentobarbital-treated rats; cited from earlier work.
Experiment [2] relates to H3 receptor. Conditions: cat; cited from earlier work.
Experiment [3] concerns H3 receptor. Conditions: rats; cited from earlier work.
In experiment [4] the test system is electrically-induced convulsions. Conditions: cited from earlier work.
A further experiment deals with histamine. Conditions: in vivo; cited from earlier work.

Read-outs that look alike come from different tables or passages of the source.

`C(=CC1CC1c1c[nH]cn1)CCC1CCCCC1` [Example 24, (1S,2S)-trans-4-(2-(4-cyclohexylbut-cis-1-enyl)cyclopropyl)imidazole]: on Histamine H3 receptor, the Ki was 108 ± 3.9 nM.

As to `C(=CC1CC1c1c[nH]cn1)CCC1CCCCC1` [Example 25, (1S,2S)-trans-4-(2-(4-cyclohexylbut-trans-1-enyl)cyclopropyl)imidazole], on Histamine H3 receptor, the inhibition constant Ki came to 56 ± 9 nM.

`O=C(NCCCC1CCCCC1)C1CC1c1c[nH]cn1` (centres unmarked) [Example 30]: the Ki on Histamine H3 receptor came out at 42 ± 7 nM.

As to `NCCc1c[nH]cn1` [histamine], the “arousal EEG pattern” value with arousal EEG pattern is given as “induces the appearances of an arousal EEG pattern”. Moreover, in experiment [1], the “spontaneous locomotor activity, grooming, and exploratory behavior” value was “increased spontaneous locomotor activity, grooming and exploratory behavior”.

Regarding `S=C(NC1CCCCC1)N1CCC(c2cnc[nH]2)CC1` [thioperamide], the wakefulness entry in the experiment with H3 receptor [2] is listed as “enhanced wakefulness in a dose-dependent fashion”. In the experiment on H3 receptor [3], the “slow wave and REM sleep” value is “decrease slow wave and REM sleep”; the wakefulness entry was “increase wakefulness”. For the same compound, in experiment [4] (electrically-induced convulsions), the “durations of every convulsive phase” value is “significantly and dose-dependently decrease the durations of every convulsive phase”. The electroconvulsive threshold result in experiment [4] (in vivo) is reported as “increase the electroconvulsive threshold”. In addition, the “synthesis and release of histamine” value in the experiment with histamine is “increase in synthesis and release of histamine”.

A word on the Ki: it is a measure of affinity in units of concentration, obtained from inhibition or displacement.

Values taken from patent US5990317A, “2-(1H-4(5)-imidazoyl) cyclopropyl compounds” (Gliatech, Inc., priority 1998, dated 1999).
